Article PMC4198181, “Gold(I) Complexes of 9-Deazahypoxanthine as Selective Antitumor and Anti-Inflammatory Agents” (PLoS ONE, 2014)

Legend:
[1] = tested on: MCF7 breast carcinoma cells; test: MTT in vitro cytotoxicity, MCF7; assay type: cell-based, human; details: 24 h treatment, read-out: IC50±S.E., MCF7
Method: (§1) In vitro cytotoxic activity was determined by the MTT assay in human breast adenocarcinoma (MCF7; ECACC no. 86012803), human osteosarcoma (HOS; ECACC no. 87070202), lung carcinoma (A549; ECACC no. 86012804), malignant melanoma (G361; ECACC no. 88030401), cervix epitheloid carcinoma (HeLa; ECACC no. 93021013), ovarian carcinoma (A2780; ECACC no. 93112519), cisplatin-resistant ovarian carcinoma (A2780R; […] ECACC no 105092802) cancer cell lines, purchased from European Collection of Cell Cultures (ECACC). […] The primary culture of human hepatocytes (HEP220, batch number HEP220819) was obtained from Biopredic International (France). The culture medium was Williams and HAM's F-12 (1∶1) supplemented with penicillin, streptomycin, ascorbic acid, linoleic acid, holo-transferin, ethanolamine, glucagon, insulin, dexamethasone, pyruvate, glucose, glutamine, amphotericin. The medium was enriched for plating with 2% foetal calf serum (v/v). The medium was exchanged for a serum-free medium the day after and the culture was stabilized for additional 24 h. Thereafter, the cells were ready for treatments. […] The MTT assay was performed spectrophotometrically at 540 nm (TECAN, Schoeller Instruments LLC). The cytotoxicity data were expressed as the percentage of viability, where 100% represented the treatments with vehicle (0.1% DMF or 0.1% DMSO). The cytotoxicity data from the cancer cell lines were acquired from three independent experiments (conducted in triplicate) using cells from different passages. The IC50 values were calculated from viability curves. The results are presented as arithmetic means±standard error of the mean (S.E.).

[2] = tested on: A549 lung carcinoma cells; test: MTT in vitro cytotoxicity, A549; assay type: cell-based, human; details: 24 h treatment, read-out: IC50±S.E., A549
Method: as §1

[3] = tested on: primary culture of human hepatocytes (HEP220); test: MTT in vitro cytotoxicity, primary human hepatocytes; assay type: cell-based; details: 24 h treatment, MTT; read-out: IC50±S.E., HEP220 (healthy human hepatocytes)
Method: as §1

[4] = tested on: HeLa cervix epitheloid carcinoma cells; test: MTT in vitro cytotoxicity, HeLa; assay type: cell-based, human; details: 24 h treatment, read-out: IC50±S.E., HeLa
Method: as §1

[5] = tested on: 22Rv1 prostate carcinoma cells; test: MTT in vitro cytotoxicity, 22Rv1; assay type: cell-based, human; details: 24 h treatment, read-out: IC50±S.E., 22Rv1
Method: as §1

[6] = tested on: G361 malignant melanoma cells; test: MTT in vitro cytotoxicity, G361; assay type: cell-based, human; details: 24 h treatment, read-out: IC50±S.E., G361
Method: as §1

[7] = tested on: A2780 ovarian carcinoma cells; test: MTT in vitro cytotoxicity, A2780; assay type: cell-based, human; details: 24 h treatment, read-out: IC50±S.E., A2780
Method: as §1

HOS osteosarcoma cells = test: MTT in vitro cytotoxicity, HOS; assay type: cell-based, human; details: 24 h treatment, read-out: IC50±S.E., HOS
Method: as §1

[8] = tested on: A2780R ovarian carcinoma cells resistant to cisplatin; test: MTT in vitro cytotoxicity, A2780R; assay type: cell-based, human; details: for IC50: 24 h treatment, MTT, read-out: IC50±S.E., A2780R
Method: as §1

[9] = tested on: THP-1 monocytic leukaemia cells; test: WST-1 in vitro cytotoxicity, THP-1; assay type: cell-based, human; details: 24 h treatment, WST-1, 0.16–10.00 µM; read-out: IC50±S.E., THP-1
Method: Before the in vitro anti-inflammatory testing, in vitro cytotoxicity on human monocytic leukaemia cells (THP-1, ECACC no. 88081201) was determined using the WST-1 assay. The THP-1 cells (floating monocytes, 500 000 cells/mL) were incubated in 100 µL of the serum-free RPMI 1640 medium and seeded into 96-well plates in triplicate at 37°C. Measurements were taken 24 h after the treatment with the tested compounds dissolved in 0.1% DMSO in the concentration range of 0.16–10.00 µM. Viability was determined by the WST-1 test according to the manufacturer's manual. The amount of the formed formazan (which correlates to the number of metabolically active cells in the culture) was calculated as a percentage of the control cells, which were treated only with 0.1% DMSO and was set-up as 100%. The IC50 values of the tested compounds were calculated from the obtained data. The WST-1 assay was performed spectrophotometrically at 440 nm (FLUOstar Omega, BMG Labtech).
The cytotoxicity data were expressed as the percentage of viability, where 100% represented the treatments with vehicle (0.1% DMF or 0.1% DMSO). The cytotoxicity data from the cancer cell lines were acquired from three independent experiments (conducted in triplicate) using cells from different passages. The IC50 values were calculated from viability curves. The results are presented as arithmetic means±standard error of the mean (S.E.). The significance of the differences between the results was assessed by the ANOVA analysis with p<0.05 considered to be significant (QC Expert 3.2, Statistical software, TriloByte Ltd., Pardubice, Czech Republic).

[10] = tested on: λ-carrageenan-induced hind paw edema; test: Carrageenan-induced hind paw edema; assay type: in vivo, Wistar-SPF rats; details: i.p., dose equivalent in gold to 10 mg/kg Auranofin
Method: Wistar-SPF (6–8 weeks male) rats were obtained from AnLab, Ltd. (Prague, Czech Republic). The animals were kept in plexiglass cages at the constant temperature of 22±1°C and relative humidity of 55±5% for at least 1 week before the experiment. They were given food and water ad libitum. All the experimental procedures were performed according to the National Institutes of Health (NIH) Guide for the Care and Use of Laboratory Animals. In addition, all the tests were conducted under the guidelines of the International Association for the Study of Pain [61]. After a one-week adaptation period, male Wistar-SPF rats (200–250 g) were randomly assigned to five groups (n = 7) of the animals in the study. The first, control group, received 25% DMSO (v/v in water, intraperitoneal; i.p.). The next three groups were pretreated with complexes 2, 4 and 5, and involved into the carrageenan-treatment. The fifth group was treated with a non-steroidal anti-inflammatory drug Indomethacin (5 mg/kg), which served as a positive control group (Indomethacin + carrageenan).
The carrageenan-induced hind paw edema model was used for the determination of anti-inflammatory activity. Animals were i.p. pretreated with complexes 2, 4, and 5 (the dosages of the individual complexes were adjusted to contain the same amount of gold as in 10 mg/kg dose of Auranofin), Indomethacin (5 mg/kg), or 25% DMSO (v/v in water) 30 min prior to the injection of 1% λ-carrageenan solution (50 µL) into the plantar side of right hind paws of the rats. The paw volume was measured immediately after the carrageenan injection (this value was set-up as baseline value for the hind paw volume) and during the next 6 h after the administration of the edematogenic agent using a plethysmometer (model 7159, Ugo Basile, Varese, Italy). The degree of swelling was evaluated as a percentage of the change of the volume of the right hind paw after the carrageenan treatment from the baseline volume. A non-steroidal anti-inflammatory drug Indomethacin was used as a positive control and the obtained data were also compared with the previously reported profile of antiedematous activity for Auranofin [38]. After 6 h, the animals were sacrificed and the edematous feet were dissected, the tissue from the plantar parts was extracted, fixed and stained by a standard hematoxylin/eosin (HE) staining for cytological evaluation of polymorphonuclear cells infiltration.
(§2) The statistically significant differences between individual groups during anti- inflammatory testing were evaluated using a one-way ANOVA test for statistical analysis, followed by Tukey's post-hoc test for multiple comparisons. GraphPad Prism 5.02 (GraphPad Software Inc., San Diego, CA, USA) was used to perform the analysis. The results are presented as arithmetic means±S.E. values.

[11] = tested on: TNF-α secretion in LPS-stimulated macrophage-like THP-1 cells; test: LPS-induced TNF-α secretion in THP-1 macrophages (ELISA); assay type: cell-based, human; details: 300 nM, 1 h pretreatment, 24 h after LPS
Method: (§3) For the determination of biological activity, we used the human monocytic leukaemia cell line THP-1 (ECACC, Salisbury, UK). The cells were cultivated at 37°C in the RPMI 1640 medium supplemented with 2 mM L-glutamine, 10% FBS, 100 U/mL of penicillin and 100 µg/mL of streptomycin in a humidified atmosphere containing 5% CO2. Stabilized cells (3rd–15th passage) were split into microtitration plates to get a concentration of 500 000 cells/mL and the differentiation to macrophages was induced by phorbol myristate acetate (PMA) dissolved in dimethyl sulfoxide (DMSO) at the final concentration of 50 ng/ml, and the cells were incubated for 24 h. In comparison with monocytes, differentiated macrophages tend to adhere to the bottoms of the cultivation plates. For next 24 h the cells were incubated with a fresh complete RPMI medium, i.e. containing antibiotics and FBS, without PMA. The medium was then aspirated, and the cells were washed with PBS and cultivated for next 24 hours in serum-free RPMI 1640 medium. These prepared macrophages were used for the detection of inflammatory response.
(§4) Differentiated macrophages were pretreated with 300 nM solutions of the tested complexes, HLn, AuCl, [AuCl(PPh3)], PPh3 and Auranofin dissolved in DMSO (the final DMSO concentration was 0.1%) and with 0.1% DMSO solution itself (vehicle) for 1 h; the given concentrations of the tested compounds lack the cytotoxic effect (cell viability >94%) based on the results of WST-1 test. The inflammatory response in pretreated macrophages was triggered by the addition of 1.0 µg/mL lipopolysaccharide (LPS) dissolved in water, while the control cells (CTRL) remained without the LPS treatment.
(§5) Macrophages, which were pretreated with the tested compounds (complexes 1–5, HLn, AuCl, [AuCl(PPh3)], PPh3 and Auranofin) for 1 h, were incubated with LPS for next 24 h. After this period, the medium was collected and the concentration of TNF-α, and IL-1β was determined by the Instant ELISA Kit according to the manufactures' manual.
as §2

[12] = tested on: IL-1β secretion in LPS-stimulated macrophage-like THP-1 cells; test: LPS-induced IL-1β secretion in THP-1 macrophages (ELISA); assay type: cell-based, human; details: 300 nM, 1 h pretreatment, 24 h after LPS
Method: as §3, §4, §5, §2

Row | Structure (SMILES) | IC50 [1] [µM] | IC50 [2] [µM] | IC50 [3] [µM] | IC50 [4] [µM] | IC50 [5] [µM] | IC50 [6] [µM] | IC50 [7] [µM] | IC50 (HOS osteosarcoma cells) [µM] | IC50 [8] [µM] | IC50 [9] [µM] | effect on LPS-induced TNF-α secretion [11] | other results
1 | N.N.[Cl][Pt][Cl] [cisplatin, reference compound] | 17.9 ± 1.2 | > 50 | > 50 | > 50 | 26.9 ± 1.2 | 5.3 ± 0.2 | 11.5 ± 0.5 | 20.5 ± 0.1 | 27 ± 1.5 |  |  | resistance factor (RF), IC50(A2780R)/IC50(A2780) ([8]; ratio resistant/sensitive cells): 2.4
2 | [Au][n]1ccc2ncnc(OCc3ccccc3)c21.c1ccc(P(c2ccccc2)c2ccccc2)cc1 [complex 4] | 4 ± 0.9 | > 20 | 23.7 ± 2.1 | 14.3 ± 0.2 | 3.5 ± 0.2 | 3.5 ± 0.2 | 4.6 ± 0.2 | 1.8 ± 0.3 | 5.1 ± 0.3 | 1.7 ± 0.1 |  | overall antiedematous / anti-inflammatory activity [10]: significant anti-inflammatory effects; antiedematous activity profile up to 180 min after carrageenan ([10]; 30 min before carrageenan): very similar pharmacological profiles of complexes 2 and 4 with the reference drug Indomethacin
3 | CC(C)Oc1ncnc2cc[nH]c12 [HL2, 6-isopropyloxy-9-deazapurine] |  |  |  |  |  |  |  |  |  |  | stimulate the production | 
4 | c1ccc(CCOc2ncnc3cc[nH]c23)cc1 [HL5, 6-phenethyloxy-9-deazapurine] |  |  |  |  |  |  |  |  |  |  | stimulate the production | 
5 | c1ccc(COc2ncnc3cc[nH]c23)cc1 [HL4, 6-benzyloxy-9-deazapurine] |  |  |  |  |  |  |  |  |  |  | stimulate the production | 
6 | [Au][n]1ccc2ncnc(OCC3CCCO3)c21.c1ccc(P(c2ccccc2)c2ccccc2)cc1 [complex 3] | 2.2 ± 0.2 | 21.4 ± 0.2 | 24.1 ± 2.4 | 20.7 ± 0.2 | 21 ± 0.7 | 3.4 ± 0.2 | 4.6 ± 0.3 | 4 ± 0.6 | 5.3 ± 0.4 | 1 ± 0.1 |  | 
7 | CCOc1ncnc2cc[n]([Au])c12.c1ccc(P(c2ccccc2)c2ccccc2)cc1 [complex 1] | 3.1 ± 0.2 | 20.7 ± 0.1 | 24 ± 1.9 | 22 ± 0.6 | 3.5 ± 0.1 | 3.5 ± 0.2 | 4.8 ± 0.1 | 3.3 ± 0.1 | 5.2 ± 0.3 | 0.8 ± 0.1 |  | level of IL-1β diminished by [12]: 32%
8 | c1ccc(P(c2ccccc2)c2ccccc2)cc1 [PPh3, triphenylphosphine] |  |  |  |  |  |  |  |  |  |  | none of the reference compounds, such as AuCl, HLn, [AuCl(PPh3)] and PPh3, exhibited any expected effect | effect on LPS-induced IL-1β secretion [12]: decreased the production of IL-1β by a manner comparable to free ligands; level of IL-1β diminished by [12]: ~32%
9 | [Cl][Au].c1ccc(P(c2ccccc2)c2ccccc2)cc1 [[AuCl(PPh3)], reference compound] |  |  |  |  |  |  |  |  |  |  | none of the reference compounds, such as AuCl, HLn, [AuCl(PPh3)] and PPh3, exhibited any expected effect | 
